Measurements as given in PubChem BioAssay AID2060888 (Molecular Pharmacology Branch, DTP, NCI, 2025).

Test system: 695427-040-R-J1-PDC complex spheroid viability
Assay: Anticancer human tumor 695427-040-R-J1-PDC patient-derived colon adenocarcinoma cell line growth inhibition [RAS]
Conditions: for IC50: curve of first compound; for viability, T/C: stronger effect = lower value
Method in brief: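 Multi-cell-type spheroids: tumor cells plus HUVEC endothelial cells and mesenchymal stem cells. RAS-pathway inhibitors were combined with targeted agents, each dosed in half-log steps down from clinical Cmax, or from 10 microM when Cmax was unknown.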
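Further: viability read after seven days of drug exposure.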
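Wherever viability, T/C is given: 100% = DMSO vehicle control viability.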

In the case of `CCc1c2c(nc3ccc(O)cc13)-c1cc3c(c(=O)n1C2)COC(=O)[C@]3(O)CC` + C=CC(=O)N1CCN(c2nc(OCC3CCCN3C)nc3c(F)c(-c4nc(N)cc(C)c4C(F)(F)F)c(Cl)cc23)C(C)C1, the IC50 (second compound 0.00316 µM) is reported as 112 nM, the IC50 (second compound 0.01 µM) is reported as 123 nM and the IC50 (second compound 0.0316 µM) is reported as 129 nM. For the same molecule, the IC50 (second compound 0.1 µM) was 128 nM, the IC50 (second compound 0.316 µM) was 144 nM and the IC50 (second compound 1 µM) was 162 nM. The viability, T/C (second compound 0.00316 µM, first compound 0.000949 µM) was 88%, the viability, T/C (second compound 0.00316 µM, first compound 0.003 µM) was 88.2% and the viability, T/C (second compound 0.00316 µM, first compound 0.00949 µM) was 84.8%. For the same molecule, the viability, T/C (second compound 0.00316 µM, first compound 0.03 µM) was 74.5%, the viability, T/C (second compound 0.00316 µM, first compound 0.0949 µM) was 54.3% and the viability, T/C (second compound 0.00316 µM, first compound 0.3 µM) was 25.5%. For the same molecule, the viability, T/C (second compound 0.01 µM, first compound 0.000949 µM) was 98.8%, the viability, T/C (second compound 0.01 µM, first compound 0.003 µM) was 92.1% and the viability, T/C (second compound 0.01 µM, first compound 0.00949 µM) was 78.7%. The viability, T/C (second compound 0.01 µM, first compound 0.03 µM) was 72.9%, the viability, T/C (second compound 0.01 µM, first compound 0.0949 µM) was 58.4% and the viability, T/C (second compound 0.01 µM, first compound 0.3 µM) was 30.9%. It also gave a viability, T/C (second compound 0.0316 µM, first compound 0.000949 µM) of 92.7%, a viability, T/C (second compound 0.0316 µM, first compound 0.003 µM) of 88.1% and a viability, T/C (second compound 0.0316 µM, first compound 0.00949 µM) of 79.4%. For the same molecule, the viability, T/C (second compound 0.0316 µM, first compound 0.03 µM) was 75.8%, the viability, T/C (second compound 0.0316 µM, first compound 0.0949 µM) was 60.9% and the viability, T/C (second compound 0.0316 µM, first compound 0.3 µM) was 25.6%. For the same molecule, the viability, T/C (second compound 0.1 µM, first compound 0.000949 µM) was 94.8%, the viability, T/C (second compound 0.1 µM, first compound 0.003 µM) was 88.6% and the viability, T/C (second compound 0.1 µM, first compound 0.00949 µM) was 79.3%. For the same molecule, the viability, T/C (second compound 0.1 µM, first compound 0.03 µM) was 68.9%, the viability, T/C (second compound 0.1 µM, first compound 0.0949 µM) was 60% and the viability, T/C (second compound 0.1 µM, first compound 0.3 µM) was 32%. It also gave a viability, T/C (second compound 0.316 µM, first compound 0.000949 µM) of 96%, a viability, T/C (second compound 0.316 µM, first compound 0.003 µM) of 91.9% and a viability, T/C (second compound 0.316 µM, first compound 0.00949 µM) of 82.7%. For the same molecule, the viability, T/C (second compound 0.316 µM, first compound 0.03 µM) was 80%, the viability, T/C (second compound 0.316 µM, first compound 0.0949 µM) was 63.6% and the viability, T/C (second compound 0.316 µM, first compound 0.3 µM) was 28.3%. It also gave a viability, T/C (second compound 1 µM, first compound 0.000949 µM) of 93.2%, a viability, T/C (second compound 1 µM, first compound 0.003 µM) of 93.4% and a viability, T/C (second compound 1 µM, first compound 0.00949 µM) of 85.1%. It also gave a viability, T/C (second compound 1 µM, first compound 0.03 µM) of 85.3%, a viability, T/C (second compound 1 µM, first compound 0.0949 µM) of 62.4% and a viability, T/C (second compound 1 µM, first compound 0.3 µM) of 34.9%.
For `Nc1ccn(C2OC(CO)C(O)C2(F)F)c(=O)n1` (stereo unspecified) + C#Cc1c(F)ccc2cc(O)cc(-c3ncc4c(N5CC6CCC(C5)N6)nc(OCC56CCCN5CC(F)C6)nc4c3F)c12, the IC50 (second compound 0.0316 µM) was greater than 1000 nM, the IC50 (second compound 0.1 µM) was greater than 1000 nM and the IC50 (second compound 0.316 µM) was greater than 1000 nM. The IC50 (second compound 1 µM) was greater than 1000 nM, the IC50 (second compound 3.16 µM) was 75.7 nM and the IC50 (second compound 10 µM) was less than 3.16 nM. The viability, T/C (second compound 0.0316 µM, first compound 0.00316 µM) was 83.8%, the viability, T/C (second compound 0.0316 µM, first compound 0.01 µM) was 82.2% and the viability, T/C (second compound 0.0316 µM, first compound 0.0316 µM) was 75%. It also gave a viability, T/C (second compound 0.0316 µM, first compound 0.1 µM) of 75.7%, a viability, T/C (second compound 0.0316 µM, first compound 0.316 µM) of 76.8% and a viability, T/C (second compound 0.0316 µM, first compound 1 µM) of 70.8%. It also gave a viability, T/C (second compound 0.1 µM, first compound 0.00316 µM) of 87.7%, a viability, T/C (second compound 0.1 µM, first compound 0.01 µM) of 75.5% and a viability, T/C (second compound 0.1 µM, first compound 0.0316 µM) of 81.9%. For the same molecule, the viability, T/C (second compound 0.1 µM, first compound 0.1 µM) was 68.8%, the viability, T/C (second compound 0.1 µM, first compound 0.316 µM) was 78.4% and the viability, T/C (second compound 0.1 µM, first compound 1 µM) was 67.2%. It also gave a viability, T/C (second compound 0.316 µM, first compound 0.00316 µM) of 85.2%, a viability, T/C (second compound 0.316 µM, first compound 0.01 µM) of 79.4% and a viability, T/C (second compound 0.316 µM, first compound 0.0316 µM) of 66.7%. For the same molecule, the viability, T/C (second compound 0.316 µM, first compound 0.1 µM) was 72.3%, the viability, T/C (second compound 0.316 µM, first compound 0.316 µM) was 67% and the viability, T/C (second compound 0.316 µM, first compound 1 µM) was 60.5%. It also gave a viability, T/C (second compound 1 µM, first compound 0.00316 µM) of 68%, a viability, T/C (second compound 1 µM, first compound 0.01 µM) of 63.4% and a viability, T/C (second compound 1 µM, first compound 0.0316 µM) of 69.5%. The viability, T/C (second compound 1 µM, first compound 0.1 µM) was 59.6%, the viability, T/C (second compound 1 µM, first compound 0.316 µM) was 59.2% and the viability, T/C (second compound 1 µM, first compound 1 µM) was 55.7%. It also gave a viability, T/C (second compound 3.16 µM, first compound 0.00316 µM) of 57.9%, a viability, T/C (second compound 3.16 µM, first compound 0.01 µM) of 62.4% and a viability, T/C (second compound 3.16 µM, first compound 0.0316 µM) of 48.9%. It also gave a viability, T/C (second compound 3.16 µM, first compound 0.1 µM) of 45.4%, a viability, T/C (second compound 3.16 µM, first compound 0.316 µM) of 50.8% and a viability, T/C (second compound 3.16 µM, first compound 1 µM) of 44.7%. It also gave a viability, T/C (second compound 10 µM, first compound 0.00316 µM) of 37.3%, a viability, T/C (second compound 10 µM, first compound 0.01 µM) of 34.8% and a viability, T/C (second compound 10 µM, first compound 0.0316 µM) of 33.2%. It also gave a viability, T/C (second compound 10 µM, first compound 0.1 µM) of 36.4%, a viability, T/C (second compound 10 µM, first compound 0.316 µM) of 33.4% and a viability, T/C (second compound 10 µM, first compound 1 µM) of 33%.
`C[C@@H](NC(=O)c1ncnc(N)c1Cl)c1ncc(C(=O)Nc2cc(C(F)(F)F)c(Cl)cn2)s1` + CCn1c(-c2cccnc2C(C)OC)c2c3cc(ccc31)N1CCOC(CC(NC(=O)C(C(C)C)N(C)C(=O)C3(F)CCN(C(=O)C#CC(C)(C)N(C)C)CC3)C(=O)N3CCCC(N3)C(=O)OCC(C)(C)C2)C1 was tested, and the IC50 (second compound 0.000949 µM) was greater than 10000 nM, the IC50 (second compound 0.003 µM) was greater than 10000 nM and the IC50 (second compound 0.00949 µM) was greater than 10000 nM. It also gave an IC50 (second compound 0.03 µM) greater than 10000 nM, an IC50 (second compound 0.0949 µM) greater than 10000 nM and an IC50 (second compound 0.3 µM) greater than 10000 nM. The viability, T/C (second compound 0.000949 µM, first compound 0.0316 µM) was 86.3%, the viability, T/C (second compound 0.000949 µM, first compound 0.1 µM) was 99.1% and the viability, T/C (second compound 0.000949 µM, first compound 0.316 µM) was 92.7%. For the same molecule, the viability, T/C (second compound 0.000949 µM, first compound 1 µM) was 106%, the viability, T/C (second compound 0.000949 µM, first compound 3.16 µM) was 96.8% and the viability, T/C (second compound 0.000949 µM, first compound 10 µM) was 85.7%. It also gave a viability, T/C (second compound 0.003 µM, first compound 0.0316 µM) of 82.2%, a viability, T/C (second compound 0.003 µM, first compound 0.1 µM) of 93.6% and a viability, T/C (second compound 0.003 µM, first compound 0.316 µM) of 113%. It also gave a viability, T/C (second compound 0.003 µM, first compound 1 µM) of 98.3%, a viability, T/C (second compound 0.003 µM, first compound 3.16 µM) of 99.2% and a viability, T/C (second compound 0.003 µM, first compound 10 µM) of 68.5%. It also gave a viability, T/C (second compound 0.00949 µM, first compound 0.0316 µM) of 96.3%, a viability, T/C (second compound 0.00949 µM, first compound 0.1 µM) of 81.6% and a viability, T/C (second compound 0.00949 µM, first compound 0.316 µM) of 105%. The viability, T/C (second compound 0.00949 µM, first compound 1 µM) was 80.2%, the viability, T/C (second compound 0.00949 µM, first compound 3.16 µM) was 102% and the viability, T/C (second compound 0.00949 µM, first compound 10 µM) was 78.1%. For the same molecule, the viability, T/C (second compound 0.03 µM, first compound 0.0316 µM) was 81%, the viability, T/C (second compound 0.03 µM, first compound 0.1 µM) was 99% and the viability, T/C (second compound 0.03 µM, first compound 0.316 µM) was 115%. It also gave a viability, T/C (second compound 0.03 µM, first compound 1 µM) of 97.5%, a viability, T/C (second compound 0.03 µM, first compound 3.16 µM) of 104% and a viability, T/C (second compound 0.03 µM, first compound 10 µM) of 82.4%. The viability, T/C (second compound 0.0949 µM, first compound 0.0316 µM) was 67.9%, the viability, T/C (second compound 0.0949 µM, first compound 0.1 µM) was 97.3% and the viability, T/C (second compound 0.0949 µM, first compound 0.316 µM) was 96.6%. The viability, T/C (second compound 0.0949 µM, first compound 1 µM) was 104%, the viability, T/C (second compound 0.0949 µM, first compound 3.16 µM) was 89.8% and the viability, T/C (second compound 0.0949 µM, first compound 10 µM) was 67.1%. For the same molecule, the viability, T/C (second compound 0.3 µM, first compound 0.0316 µM) was 78.8%, the viability, T/C (second compound 0.3 µM, first compound 0.1 µM) was 94.4% and the viability, T/C (second compound 0.3 µM, first compound 0.316 µM) was 94.7%. It also gave a viability, T/C (second compound 0.3 µM, first compound 1 µM) of 98%, a viability, T/C (second compound 0.3 µM, first compound 3.16 µM) of 97.8% and a viability, T/C (second compound 0.3 µM, first compound 10 µM) of 67.9%.
